Source: patent US11447485B2, “Class of bifunctional compounds with quanternary ammonium salt structure” (Beijing Showby Pharmaceutical Co., Ltd., priority 2016, dated 2022)
Read-outs that look alike come from different tables or passages of the source.

Columns and labels:
[1] = Liver microsome metabolic stability in vitro (Beagle dog); conditions: Beagle dog liver microsomes
Description: (§1) The area ratio of the 0 min sample was taken as 100%, and the remaining percentage of the compound after incubation at different times was obtained at each time point by comparison with the sample. With the natural logarithm of this percentage on the ordinate and time on the abscissa, a scatter plot was drawn to simulate a straight line with a negative slope of k. The parameters were calculated according to the formula.
(§2) Liver weight indicates the liver weight (g) per kilogram of body weight, and P450 indicates the amount (mg) of P450 enzyme per gram of liver.

[2] = Liver microsome metabolic stability in vitro (SD rat); conditions: SD rat liver microsomes
Description: as §1, §2

[3] = test system: heart rate of Beagle dogs; test: Heart rate changes after iv administration in Beagle dogs; type: in vivo, Beagle dog
Description: Beagle dogs were randomly divided into two groups, half male and half female, and were intravenously injected (iv) with 7.5% ethanol solution of compounds of the invention and control compound. Each compound was set up in two dosage groups of 0.01 mg/kg and 0.10 mg/kg.

[4] = Liver microsome metabolic stability in vitro (human); conditions: Human liver microsomes
Description: as §1, §2

[5] = Lung homogenate stability in vitro (dog); type: in vitro ADME, Beagle dog; conditions: 8 h, 37° C.
Description: The compounds of the invention were respectively incubated with the lung homogenate of Beagle dogs for 8 hours in a water bath at 37° C., and sample was analysed by LC-MS/MS when the reaction was terminated.

[6] = test system: β2 receptor in guinea pig tracheal smooth muscle; test: BA activity: guinea pig isolated trachea pre-treated with histamine; conditions: Cavia porcellus
Description: (3) The Antagonism of the Example Compounds on β2 Receptor in Guinea Pig Tracheal Smooth Muscle
(§3) Preparation of an isolated tracheal smooth muscle specimen of a guinea pig: same as Experiment Example 1.
Administration Method: After the trachea flake was stabilized, histamine solution with a final concentration of 3×10^−5 mol/L was added for 10 min, carbachol with a final concentration of 3×10^−6 mol/L was added (observing β receptor antagonism), and administration was started when the pressure value of the trachea flake was increased to a stable platform. The experiments were divided into a blank group, a histamine+blank group, each test sample administration group and a histamine+each test sample administration group. DMSO solution prepared by K—H solution and 50 μl of test sample solution were added to each group of the blank group and each test sample administration group respectively. The histamine+blank group and histamine+each test sample administration group were added with 50 μl histamine solution for 10 min respectively, then added with DMSO solution prepared by K—H solution and 50 μl test sample solution. The test sample administration group was added with the compounds to be tested with final concentrations of 10^−9, 0.3×10^−8, 10^−8, 0.3×10^−7, 10^−7, 0.3×10^−6 and 10^−6 mol/L at cumulative concentration, and the blank group was added with corresponding diluted DMSO solution. The histamine+each test sample administration group was added with histamine for 10 min, and then added with the test compounds with final concentrations of 10^−9, 0.3×10^−8, 10^−8, 0.3×10^−7, 10^−7, 0.3×10^−6 and 10^−6 mol/L at cumulative concentration. After the histamine+blank group was added with histamine for 10 m, corresponding diluted DMSO solution was added. Medlab was used to record the relaxation degree of smooth muscle of the trachea flake. Finally theophylline with a final concentration of 2×10^−4 mol/L was added as 100% relaxation.

[7] = test system: M receptor of guinea pig tracheal smooth muscle; test: MA activity: guinea pig isolated trachea, propranolol blocks β receptor, CCh constriction; conditions: Cavia porcellus; propranolol 10^−5 mol/L, CCh 3×10^−6 mol/L
Description: (2) Blocking Effect of Example Compounds on M Receptor of Guinea Pig Tracheal Smooth Muscle
as §3
Administration method: After trachea flake was stabilized, propranolol hydrochloride solution with a final concentration of 10^−5 mol/L was added to block β receptor for 10 min, carbachol with a final concentration of 3×10^−6 mol/L was added (observing M receptor antagonism of compound after propranolol blocks β receptor), and administration was started when the pressure value of the trachea flake was increased to a stable platform. The experiments were divided into a blank group, a propranolol+blank group, each test sample administration group and a propranolol+each test sample administration group. DMSO solution prepared by K—H solution and 50 μl of test sample solution were added to each group of the blank group and each test sample administration group respectively. The propranolol+blank group and propranolol+each test sample administration group were added with 50 μl propranolol solution for 10 min respectively, and then added with DMSO solution prepared from K—H solution and 50 μl of test sample solution. The test sample administration group was added with the compounds to be tested with final concentrations of 10^−9, 0.3×10^−8, 10^−8, 0.3×10^−7, 10^−7, 0.3×10^−6 and 10^−6 mol/L at cumulative concentration, and the blank group was added with corresponding diluted DMSO solution. The propranolol+each test sample administration group was added with propranolol for 10 min, and then added with the compounds to be tested with final concentrations of 10^−9, 0.3×10^−8, 10^−8, 0.3×10^−7, 10^−7, 0.3×10^−6 and 10^−6 mol/L at cumulative concentration. After the propranolol+blank group was added with propranolol for 10 min, corresponding diluted DMSO solution was added. Medlab was used to record the relaxation degree of tracheal smooth muscle, finally sodium nitroprusside with a final concentration of […] was added as 100% relaxation.

[8] = test system: guinea pig tracheal smooth muscle (MABA); test: MABA activity: relaxation of CCh pre-constricted guinea pig isolated trachea; conditions: Cavia porcellus; CCh 3×10^−6 mol/L
Description: (1) The Constriction Effect of Tracheal Smooth Muscle of Guinea Pig Induced by the Example Compounds Antagonizing Carbachol (CCh)
as §3
Administration Method: After the trachea flake were stabilized, carbachol with a final concentration of 3×10^−6 mol/L was added, and administration was started when the pressure value of the trachea flake was increased to a stable platform. The experiments were divided into blank group and each test sample administration group. DMSO solution prepared from K—H solution and 50 μl of each test sample solution were added to each group respectively. The test sample administration group was added with 10^−9, 0.3×10^−8, 10^−8, 0.3×10^−7, 10^−7, 0.3×10^−6 and 10^−6 mol/L of test compound and control substance at cumulative concentration. The blank group was added with corresponding diluted DMSO solution. Medlab was used to record the relaxation degree of smooth muscle of the trachea flake. Finally, isoproterenol with a final concentration of 10^−5 mol/L was added as 100% relaxation.

[9] = Lung homogenate stability in vitro (human); type: in vitro ADME; conditions: 8 h, 37° C.
[10] = test system: tracheal smooth muscle of guinea pig; test: Relaxation of CCh-induced constriction of isolated guinea pig tracheal smooth muscle (Experimental Example 1); conditions: in vitro; for Onset time (min) ± SD / Time for eliminating inhibition effect (min): CCh 3 × 10^−6 mol/L
Description: The upper end was connected with a muscle tension transducer, and the specimen was given a resting tension of 1.0 g. Muscle tension changes were recorded, nutrient solution was changed every 20 min, and the experiment was started after 60 min of equilibrium.
Administration Method: After the trachea flake were stabilized, 3×10^−6 mol/L CCh was added to the bath. […] Diastolic condition of the trachea flake was observed. If no response occurred (below the threshold concentration), the next dosage was continued to be added in the order. If any response occurred, the next dosage was added until its diastolic platform was reached. The above operation was repeated until the shrink curve reached the minimum. Finally, 10^−6 mol/L isoproterenol was added to establish maximum relaxation, and the curve was recorded.
Statistical Methods: Statistics was performed using the Sigma Stat statistical software package, the data was analyzed by using the variance analysis. Student-Newman-Keuls (SNK) test was used in comparison among multiple sample averages number. The statistical test level was α=0.05 (bilateral).

Structure (SMILES) | liver extraction rate (ERh) [1] | liver extraction rate (ERh) [2] | 0.5-4 h area increase under heart rate curve (%) ([3]; 0.01 mg/kg iv) | 0.5-4 h area increase under heart rate curve (%) ([3]; 0.10 mg/kg iv) | liver extraction rate (ERh) [4] | Residual rate after incubation of dog lung homogenate (%) [5] [%] | EC50 ([6]; read-out: BA (EC50, nM)) [nM] | EC50 [7] [nM] | EC50 [8] [nM] | Residual rate after incubation of human lung homogenate (%) [9] [%] | EC50 ([6]; histamine 3×10^−5 mol/L, read-out: BA (EC50)) [nM] | Onset time (min) ± SD [10] | Time for eliminating inhibition effect (min) [10] | Onset time (min) ± SD ([10]; listed as Tiotropium bromine) [min] | Time for eliminating inhibition effect (min) ([10]; listed as Tiotropium bromine) | EC50 ([10]; Cavia porcellus, constriction induced by CCh 3 × 10^−6 mol/L, read-out: EC50 (μM) ± SD) [µM]
C[N+]1(C)CCC(OC(=O)Nc2cc(CCC(=O)Nc3ccc(CNC[C@H](O)c4ccc(O)c5[nH]c(=O)ccc45)cc3)ccc2-c2ccccc2)CC1.O=C([O-])C(F)(F)F [4-({[5-(2-{[4-({[(2R)-2-hydroxy-2-(8-hydroxy-2-oxo-1,2-dihydroquinolin-5-yl)ethyl]amino}methyl)phenyl]carbamoyl}ethyl)-2-phenylphenyl]carbamoyl}oxy)-1,1-dimethylpiperidin-1-onium trifluoroacetate, reference compound] | 0.43 | 0.48 | 35.2 | 109 | 0.36 |  |  |  |  |  |  |  |  |  |  | 
O=c1ccc2c([C@@H](O)CNCCCCCCCCC[N+]34CCC(CC3)[C@@H](OC[C@@](O)(c3ccccc3)C3CCCC3)C4)ccc(O)c2[nH]1.[Br-] [Compound 12] | 0.93 | 0.98 | 1.2 | 3.6 | 0.96 | 91 | 13.8 ± 2.3 | 20.1 ± 2.8 | 5.8 ± 1.4 | 98 |  |  |  |  |  | 
CC(Cc1ccc(OCCC[N+]23CCC(CC2)[C@@H](OC[C@@](O)(c2ccccc2)C2CCCC2)C3)cc1)NC[C@H](O)c1ccc(O)c2[nH]c(=O)ccc12.[Br-] (stereo partly drawn) [Compound 80] | 0.91 | 0.92 | 4 | −5.1 | 0.92 | 92 | 9.9 ± 1.7 | 13.3 ± 1.2 | 3.3 ± 0.9 | 92 |  |  |  |  |  | 
CC(Cc1ccc(OCC[N+]23CCC(CC2)[C@@H](OC[C@@](O)(c2ccccc2)C2CCCC2)C3)cc1)NC[C@H](O)c1ccc(O)c(NC=O)c1 (stereo partly drawn) [Compound 61, (R)-(−)-3-[(R)-2-hydroxy-2-cyclopentyl-2-phenyl]ethoxy]-1-{2-[4-(2-{(R)-[2-hydroxy-2-(3-formamido-4-hydroxy)phenyl]ethylamino}propyl)phenoxy]ethyl}-1-azabicyclo[2,2,2]octylonium bromide] | 0.97 | 0.95 | 0 | 2.1 | 0.98 | 89 | 12.9 ± 1.8 | 20.6 ± 1.8 | 5 ± 1.1 | 92 |  |  |  |  |  | 
OCc1cc(C(O)CNCCCCCCOCCCCc2ccccc2)ccc1O (stereo not drawn) [Salmeterol, reference compound] |  |  |  |  |  |  |  |  |  |  | 93.8 ± 6.8 |  |  |  |  | 
C[N+]1(C)[C@@H]2C[C@@H](OC(=O)C(O)(c3cccs3)c3cccs3)C[C@H]1[C@@H]1O[C@@H]12 [Tiotropium Bromide, tiotropium bromide, reference compound] |  |  |  |  |  |  |  | 12.2 ± 0.8 |  |  |  | slow | long duration of action | 30.37 ± 0.50 | more than 300 min | 0.0142 ± 0.0022
CC(NC[C@H](O)c1ccc(O)c(NC=O)c1)c1ccc(OCCC[N+]23CCC(CC2)[C@@H](OC[C@@](O)(c2ccccc2)C2CCCC2)C3)cc1.[Br-] (stereo partly drawn) [Compound 94] | 0.94 | 0.94 | −2.8 | 4.6 | 0.93 | 96 | 33.5 ± 5.7 | 43.5 ± 4.2 | 19.8 ± 5.4 | 91 |  |  |  |  |  | 
O=c1ccc2c([C@@H](O)CNCCCCCCCCCN3CCC(Cn4cnc([C@](O)(c5ccccc5)C5CCCCC5)n4)CC3)ccc(O)c2[nH]1 [5-[(1R)-2-({9-[4-({3-[(R)-cyclohexyl(hydroxy)benzyl)-1H-1,2,4-triazol-1-yl}methyl)piperidin-1-yl]nonyl}amino)-1-hydroxyethyl]-8-hydroxyquinolin-2(1H)-one, reference compound] | 0.36 | 0.42 | 69.7 | 152 | 0.62 |  |  |  |  |  |  |  |  |  |  | 
